Measured values: patent US20120149645A1, “COMPOSITIONS AND MODULATION OF MYOCYTE ENHANCER FACTOR 2 (MEF2)” (EMORY UNIVERSITY, priority 2010, published 2012)

B1: ND6 MEF2 site probe WT (dsDNA)
DNA 1: CTAAACCCCCATAAATAGGAGAAGGCTT
DNA 2: AAGCCTTCTCCTATTTATGGGGGTTTAG

Experiments:
[1] = test system: mitochondrial MEF2D and ND6; test: MPTP mouse model, western blotting of mitochondria purified from brain SNpc; type: in vivo; settings: chronic intraperitoneal MPTP vs saline treated controls
Procedure: For each group, six eight-week-old mice received chronic intraperitoneal injections of MPTP-HCl in saline or saline alone were killed on 5 or 20 days after injection. Mitochondria purified from brain SNpc region were analyzed by western blotting. Experiments were repeated three times. […] For each group, three mice received stereotactical injection of control vector (GFP) or Mt2Ddn lentivirus in SN. Two weeks later, mice were exposed to MPTP. After treatment for seven days, the survival of lentivirus-transduced TH+ neurons in SN was determined by immunohistochemistry (left panel). Quantitative analysis of nine mice from three independent experiments was shown at the bottom panel (scale bar, 30 μm; **P<0.01). […] Mitochondria were purified from brain striata of postmortem PD patients and controls (normal). Equal amounts of mitochondrial proteins were subjected to western blotting (upper panel). Quantitative analysis of the bands was shown at the right panel (n=13 patients and 13 controls, *P<0.01). Experiments were repeated two times.
Mitochondria were purified from brain tissue using discontinuous sucrose gradient method. Briefly, brain homogenate was made in ice-cold homo-buffer (0.32 M sucrose, 20 mM Tris-HCl, pH 7.4) and spun at 900×g, 4° C. for 10 min. The supernatant was transferred to another clean tube and spun at 10,000×g, 4° C. for 10 min. […]

TH+ neurons in SNpc = test: MPTP mouse model of PD, TH immunohistochemistry in SNpc; settings: mice, chronic MPTP exposure; SNpc and striatum
Procedure: (B) Role of mitochondrial MEF2D-ND6 pathway in maintaining TH+ neurons in SNpc in a MPTP mouse model of PD. For each group, three mice received stereotactical injection of control vector (GFP) or Mt2Ddn lentivirus in SN. Two weeks later, mice were exposed to MPTP. After treatment for seven days, the survival of lentivirus-transduced TH+ neurons in SN was determined by immunohistochemistry (left panel). Quantitative analysis of nine mice from three independent experiments was shown at the bottom panel (scale bar, 30 μm; **P<0.01).

MEF2D (1-91) = MEF2D (1-91) (UniProt Q63943 Q63943:1-91); test: EMSA; 10 ng protein, on ice 30 min; settings: tags: GST fusion (N-terminal GST); label: 32P
Chain of MEF2D (1-91) (Q63943 1-91, one chain of several): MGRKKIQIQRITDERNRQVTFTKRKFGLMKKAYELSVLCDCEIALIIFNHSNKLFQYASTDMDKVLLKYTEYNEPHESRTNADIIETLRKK

| Molecule | level of ND6 protein in mouse brain [1] | mitochondrial MEF2D in mouse brain [1] | immunohistochemical signal for tyrosine hydroxylase (TH) (TH+ neurons in SNpc) | binding result (MEF2D (1-91)) |
| --- | --- | --- | --- | --- |
| CN1CC=C(c2ccccc2)CC1 [MPTP, 1-methyl 4-phenyl 1,2,3,6-tetrahydropyridine] | clear decline | significant reduction | loss | – |
| B1 | – | – | – | binds |
